Counter-ions that a name gives are not always drawn.
Tested on: MCH58 fibroblasts
Test: Mass spectrometry-based metabolite profiling
Type: cell-based, human
Description: Metabolite profiling was performed on MCH58 fibroblasts following treatment with 50 μM meclizine or vehicle control for six hours, using methods similar to those previously described, see […] et al., Mol Syst Biol 4:214 (2008). […] For assessment of media metabolites, 500 μl of spent media or baseline media (prior to addition to cells) were sampled from the culture dish and immediately added to 500 μl of pre-cooled (-80° C.) methanol extraction solution (80% methanol, 20% H2O) to allow for rapid quenching of metabolism and extraction of metabolites. After 20 minutes at 4° C., samples were centrifuged at 14,000 g for 10 minutes. 50 μl of the supernatant was collected, re-diluted 1:20 with methanol extraction solution, and 100 μl of the final solution evaporated under nitrogen. Samples were reconstituted in 60 μl of HPLC-grade water and metabolite levels determined, as described below. For assessment of intracellular metabolites, media was aspirated from the above tissue culture plates and cells gently washed with 4 mL of PBS, to ensure complete removal of residual media metabolites. The PBS was removed and cellular metabolism quenched with immediate addition of 1 mL of pre-cooled (-80° C.) methanol extraction solution (80% methanol, 20% H2O). Cells were scraped, collected in extraction solution, vortexed and the samples centrifuged as described above for preparation of media samples. 100 μl of the supernatant was collected, re-diluted 1:1 with methanol extraction solution, and 100 μl of the final solution evaporated under nitrogen. Samples were reconstituted in 60 μl of HPLC-grade water and metabolites assessed. Six biological replicates were assessed for each group. Analyses of endogenous metabolites were performed using a liquid chromatography tandem mass spectrometry (LC-MS) system composed of a 4000 QTRAP triple quadrupole mass spectrometer (Applied Biosystems/SCIEX) coupled to three Agilent 1100 binary HPLC pumps (Agilent Technologies) and an HTS PAL autosampler (LEAP Technologies) equipped with three injection ports and a column selector valve. Three multiplexed chromatographic methods were configured for the analyses of each sample: LC method 1 used a Luna Phenyl-Hexyl column (Phenomenex) eluted with a linear gradient of water/acetonitrile/acetic acid (initial proportions 100/0/0.001, final proportions 10/90/0.001); […] LC method 3 used a Synergi Polar-RP column (Phenomenex) with reversed phase, gradient elution using 5% acetonitrile/5 mM ammonium acetate (mobile phase A) and 95% acetonitrile/5 mM ammonium acetate (mobile phase B). MS data were acquired using multiple reaction monitoring (MRM) in both the positive (LC method 1) and negative (LC methods 2 and 3) ion modes. During the development of this method, authentic reference compounds were used to determine LC retention times and to tune MRM transitions. Metabolite quantification was performed by integrating peak areas for specific MRM transitions using MultiQuant software (version 1.1; Applied Biosystems/SCIEX) and all integrated peaks were manually reviewed for quality. Extraction and quantification procedures were optimized prior to assessment of samples in this study to ensure measured intracellular and media metabolites were within the linear range of detection. Confirmation of the phosphoethanolamine peak was performed using an exogenous phosphoethanolamine standard (Sigma P0503).

[1] = intracellular, 50 μM, 6 h, over DMSO

Cc1cccc(CN2CCN(C(c3ccccc3)c3ccc(Cl)cc3)CC2)c1 (racemic) [Meclizine, meclizine hydrochloride]
Fold Change P1_M0003_2′-deoxycytidine [1]: 1.13 | Fold Change P1_M0007_Acetylcholine_p2_Met-146 [1]: 1.06 | Fold Change P1_M0008_Alanine [1]: 1.40 | Fold Change P1_M0009_Allantoin [1]: 0.91 | Fold Change P1_M0012_Arginine [1]: 1.01 | Fold Change P1_M0013_Argininosuccinate [1]: 1.08 | Fold Change P1_M0014_Asparagine [1]: 2.43 | Fold Change P1_M0015_Aspartate [1]: 1.25 | Fold Change P1_M0016_Betaine [1]: 1.08 | Fold Change P1_M0018_Carnosine [1]: 1.00 | Fold Change P1_M0019_Choline [1]: 0.90 | Fold Change P1_M0022_Creatine [1]: 1.47 | Fold Change P1_M0023_Creatinine [1]: 1.03 | Fold Change P1_M0026_Cysteine [1]: 1.38 | Fold Change P1_M0027_Cytidine [1]: 1.28 | Fold Change P1_M0030_DimethylGlycine [1]: 0.98 | Fold Change P1_M0034_GlutamicAcid_p2 [1]: 1.16 | Fold Change P1_M0035_Glutamine [1]: 1.05 | Fold Change P1_M0038_Histidine [1]: 1.07 | Fold Change P1_M0039_Homocysteine [1]: 0.95 | Fold Change P1_M0040_Homoserine [1]: 1.14 | Fold Change P1_M0041_Hydroxyproline [1]: 1.17 | Fold Change P1_M0042/M0044_Ile/Leu [1]: 0.91 | Fold Change P1_M0045_Lysine [1]: 1.08 | Fold Change P1_M0046_Metanephrine_p2 [1]: 0.87 | Fold Change P1_M0047_Methionine [1]: 1.06 | Fold Change P1_M0050_Niacinamide [1]: 1.08 | Fold Change P1_M0052_Ornithine [1]: 1.01 | Fold Change P1_M0053_Phenylalanine [1]: 1.09 | Fold Change P1_M0054_Phosphoethanolamine [1]: 38.21 | Fold Change P1_M0055_Proline [1]: 1.28 | Fold Change P1_M0056_Pyridoxine [1]: 1.15 | Fold Change P1_M0058_Serine [1]: 1.11 | Fold Change P1_M0062_Taurine [1]: 1.59 | Fold Change P1_M0063_Threonine [1]: 1.14 | Fold Change P1_M0066_Tryptophan [1]: 1.13 | Fold Change P1_M0067_Tyrosine [1]: 1.18 | Fold Change P1_M0068/M0037_Valine/GuanidinoaceticAcid [1]: 0.94 | Fold Change P1_M0070_Xanthosine [1]: 1.21 | Fold Change P1_M0142_Thymidine [1]: 0.97 | Fold Change P1_M0200_L-NMMA [1]: 0.59 | Fold Change P1_M0201/M0202_ADMA/SDMA [1]: 0.99 | Fold Change P1_M0204_Glycerol [1]: 0.94 | Fold Change P1_NM001-M68_Valine-d8 [1]: 1.01 | Fold Change P3_M0077_Acetoacetate [1]: 1.07 | Fold Change P3_M0081_ADP_p2 [1]: 1.43 | Fold Change P3_M0082_AMP [1]: 1.31 | Fold Change P3_M0100_FolicAcid [1]: 0.63 | Fold Change P3_M0102/M0103/M0196_F16DiP/F26DiP/G16DiP_D79_p2 [1]: 1.32 | Fold Change P3_M0104-M0107_F1P/F6P/G1P/G6P_D97 [1]: 0.97 | Fold Change P3_M0109-M0110_Glucose/Galactose [1]: 0.94 | Fold Change P3_M0111_GlutathioneOxidized [1]: 1.20 | Fold Change P3_M0112_GlutathioneReduced [1]: 1.74 | Fold Change P3_M0113_Glyceraldehyde [1]: 1.00 | Fold Change P3_M0114_Glycerol-3-P [1]: 1.21 | Fold Change P3_M0121_Hypoxanthine [1]: 1.17 | Fold Change P3_M0126_LacticAcid [1]: 0.99 | Fold Change P3_M0127_Lactose [1]: 0.42 | Fold Change P3_M0129_NAD [1]: 1.11 | Fold Change P3_M0130_NADP [1]: 1.24 | Fold Change P3_M0139_Sorbitol [1]: 0.92 | Fold Change P3_M0140_Sucrose [1]: 1.18 | Fold Change P3_M0145/M0146_UDP-Glucose/UDP-Galactose_p2 [1]: 1.33 | Fold Change P3_M0147_UDP-GlucuronicAcid [1]: 1.45 | Fold Change P3_M0149_Uracil [1]: 0.90 | Fold Change P3_M0150_Uridine [1]: 0.88 | Fold Change P3_M0152_Xanthine [1]: 0.85 | Fold Change P3_M0154_Methylmalonate [1]: 0.86 | Fold Change P3_M0164/M0175_FumaricAcid/MaleicAcid [1]: 1.07 | Fold Change P3_M0195_3-PhosphoglycericAcid [1]: 1.45 | Fold Change P3_NM002-M109_Glucose-13C6-d7 [1]: 1.02 | Fold Change P3_NM003-M161_CitricAcid-d4 [1]: 0.97 | Fold Change P4_CAP193_Met-165 [1]: 0.90 | Fold Change P4_M0083_ATP_D159 [1]: 1.27 | Fold Change P4_M0088_CMP [1]: 1.27 | Fold Change P4_M0089_CTP [1]: 1.32 | Fold Change P4_M0090_Cystathionine [1]: 1.53 | Fold Change P4_M0091_DCDP [1]: 1.09 | Fold Change P4_M0092_DCMP [1]: 1.17 | Fold Change P4_M0093_DCTP [1]: 1.02 | Fold Change P4_M0097_DUMP [1]: 0.88 | Fold Change P4_M0100_FolicAcid [1]: 0.84 | Fold Change P4_M0102/M0103/M0196_F16DiP/F26DiP/G16DiP_D79_p1 [1]: 1.14 | Fold Change P4_M0102/M0103/M0196_F16DiP/F26DiP/G16DiP_D241 [1]: 1.07 | Fold Change P4_M0108_GDP_p1 [1]: 1.38 | Fold Change P4_M0116_GTP [1]: 1.24 | Fold Change P4_M0121_Hypoxanthine [1]: 0.76 | Fold Change P4_M0123_Inosine_p2 [1]: 1.18 | Fold Change P4_M0126_LacticAcid [1]: 0.96 | Fold Change P4_M0137/M0138_Ribose-5-P/Ribulose-5-P_D97 [1]: 1.07 | Fold Change P4_M0140_Sucrose [1]: 1.10 | Fold Change P4_M0144_UDP [1]: 1.21 | Fold Change P4_M0148_UMP_p1 [1]: 0.83 | Fold Change P4_M0151_UTP [1]: 1.09 | Fold Change P4_M0157/M0156_Alpha-Keto-Glutarate/AdipicAcid [1]: 1.06 | Fold Change P4_M0158_AscorbicAcid [1]: 0.96 | Fold Change P4_M0159_CDP [1]: 1.52 | Fold Change P4_M0161/M0172_CitricAcid/IsocitricAcid [1]: 0.66 | Fold Change P4_M0162_Citrulline [1]: 0.87 | Fold Change P4_M0163_DHAP [1]: 0.98 | Fold Change P4_M0164/M0175_FumaricAcid/MaleicAcid [1]: 0.94 | Fold Change P4_M0165_GeranylPyrophosphate [1]: 1.18 | Fold Change P4_M0166_Glucuronate [1]: 0.77 | Fold Change P4_M0167_Glycerate-2-P_p1_Met-185 [1]: 1.09 | Fold Change P4_M0168_GlycochenodeoxycholicAcid [1]: 0.83 | Fold Change P4_M0169_GlycocholicAcid [1]: 0.68 | Fold Change P4_M0170_HippuricAcid [1]: 0.86 | Fold Change P4_M0173_Kynurenine [1]: 0.96 | Fold Change P4_M0176_MalicAcid [1]: 0.96 | Fold Change P4_M0180_OH-PhenylPyruvate [1]: 0.86 | Fold Change P4_M0183_Oxaloacetate [1]: 0.92 | Fold Change P4_M0184_PantothenicAcid [1]: 1.29 | Fold Change P4_M0185_Pyridoxal-5-phosphate_p1 [1]: 1.01 | Fold Change P4_M0187_SuccinicAcid [1]: 0.83 | Fold Change P4_M0188_TaurochenodeoxycholicAcid [1]: 0.76 | Fold Change P4_M0190_UricAcid [1]: 0.87 | Fold Change P4_M0191_Xanthosine-5′-monophosphate [1]: 1.75 | Fold Change P4_M0198_AconiticAcid(CAP203)_D129 [1]: 0.55 | Fold Change P4_M0205_PhosphoTyrosine [1]: 1.23 | Fold Change P4_M0206_Acetyl-CoA_P404 [1]: 1.22 | Fold Change P4_M0207_Malonyl-CoA_p1 [1]: 1.16 | Fold Change P4_M0210_Pyruvate [1]: 1.08 | Fold Change P4_NM002-M109_Glucose-13C6-d7 [1]: 1.15 | Fold Change P4_NM003-M161_CitricAcid-d4_p1 [1]: 1.02 | increase of intracellular phosphoethanolamine (six hours after treatment): ~35 fold

Reference: patent US9399032B2, “Methods and compositions for treating degenerative and ischemic disorders” (The General Hospital Corporation, priority 2009, dated 2016)
